# Experimental data as given in patent US20220071932A1, “Compositions and Methods Against Stress-Induced Affective Disorders and Their Associated Symptoms” (The Trustees of Columbia University in the City of New York, priority 2019, published 2022).
# System: 129S6/SvEv mice
# Test: Forced swim test (FST); immobility time
# Type: in vivo
# Conditions: for p, Fisher's PLSD Saline vs. drug, FST Day 2 Immobility Time (s): FIG. 2G; for Forced Swim Test Day 1, Immobility Time Min 1 (sec), p (Fisher's LSD) / Forced Swim Test Day 1, Immobility Time Min 2 (sec), p (Fisher's LSD) / Forced Swim Test Day 1, Immobility Time Min 3 (sec), p (Fisher's LSD) / Forced Swim Test Day 1, Immobility Time Min 4 (sec), p (Fisher's LSD) / Forced Swim Test Day 1, Immobility Time Min 5 (sec), p (Fisher's LSD) / Forced Swim Test Day 1, Immobility Time Min 6 (sec), p (Fisher's LSD): FIG. 8H; for p, Immobility Time (s), FST Day 2, (R,S)-ketamine vs. FENM: (R,S)-ketamine 30 mg/kg vs. FENM 20 mg/kg
# Experimental: The FST was administered as previously described (47). Briefly, mice were placed into clear plastic buckets 20 cm in diameter and 23 cm deep filled ⅔ of the way with 22° C. water. Mice were videotaped from the side for 6 min and were exposed to the swim test on 2 consecutive days Immobility time was scored by an experimenter blind to the experimental groups.
# [1] = 30 mg/kg, drug 5 minutes after stress, FIG. 2F
# [2] = (R,S)-ketamine (30 mg/kg) vs. FENM (20 mg/kg)
# [3] = Fisher's LSD, Baseline cohort, FENM 20 mg/kg, FIG. 6D
# [4] = dose (20), drug 5 minutes after stress, FIG. 2F
# [5] = non-stressed mice, FENM 20 mg/kg 1 hour before the start of the FST, vs saline
smiles,measurement,setting,value
"NC12CC3CC(C1)CC(CCF)(C3)C2 [FENM, 1-amino-3-fluoroethyl-adamantane]","p, Fisher's PLSD Saline vs. drug, FST Day 2 Immobility Time Min 2 (s)",[1],<0.0001
same,"p, Fisher's PLSD Saline vs. drug, FST Day 2 Immobility Time Min 3 (s)",[1],0.2804
same,"p, Fisher's PLSD Saline vs. drug, FST Day 2 Immobility Time Min 4 (s)",[1],0.4890
same,"p, Fisher's PLSD Saline vs. drug, FST Day 2 Immobility Time Min 5 (s)",[1],0.8673
same,"p, Fisher's PLSD Saline vs. drug, FST Day 2 Immobility Time Min 6 (s)",[1],0.6591
same,"p, Fisher's PLSD Saline vs. drug, FST Day 2 Immobility Time (s)","30 mg/kg, drug 5 minutes after stress, after ANOVA",0.0210
same,"immobility time, day 2 of the FST","5 minutes after CFC, re-exposure 1 day after training, (R,S)-ketamine 30 mg/kg, FENM 20 mg/kg, vs saline",significantly reduced immobility time
same,"Forced Swim Test Day 1, Immobility Time Min 1 (sec), p (Fisher's LSD)",[2],0.2548
same,"Forced Swim Test Day 1, Immobility Time Min 2 (sec), p (Fisher's LSD)",[2],0.5009
same,"Forced Swim Test Day 1, Immobility Time Min 3 (sec), p (Fisher's LSD)",[2],0.4155
same,"Forced Swim Test Day 1, Immobility Time Min 4 (sec), p (Fisher's LSD)",[2],0.7067
same,"Forced Swim Test Day 1, Immobility Time Min 5 (sec), p (Fisher's LSD)",[2],0.3041
same,"Forced Swim Test Day 1, Immobility Time Min 6 (sec), p (Fisher's LSD)",[2],0.8903
same,"Forced Swim Test Day 2, Immobility Time (sec), p (Fisher's LSD)","(R,S)-ketamine (30 mg/kg) vs. FENM (20 mg/kg), after ANOVA, FIG. 8K",0.0713
same,"Forced Swim Test Day 2, Immobility Time (sec), p (Fisher's LSD)","(R,S)-ketamine (30 mg/kg) vs. FENM (20 mg/kg), after RMANOVA, FIG. 8J",0.0712
same,Behavior: Depressive-like,"Antidepressant (5 min after stress), dose 10 mg/kg",↓
same,Behavior: Depressive-like,"Antidepressant (5 min after stress), dose 20 mg/kg",↓
same,Behavior: Depressive-like,"Antidepressant (5 min after stress), dose 30 mg/kg",↓
same,Behavior: Depressive-like,"Antidepressant (5 min after stress; extinction), dose 20 mg/kg",↓
same,"p, Immobility Time Min 1 (sec), FST Day 2, Saline vs. FENM",[3],0.3330
same,"p, Immobility Time Min 2 (sec), FST Day 2, Saline vs. FENM",[3],0.4156
same,"p, Immobility Time Min 3 (sec), FST Day 2, Saline vs. FENM",[3],0.0346
same,"p, Immobility Time Min 4 (sec), FST Day 2, Saline vs. FENM",[3],0.2905
same,"p, Immobility Time Min 5 (sec), FST Day 2, Saline vs. FENM",[3],0.6448
same,"p, Immobility Time Min 6 (sec), FST Day 2, Saline vs. FENM",[3],0.5256
same,"p, Immobility Time (s), FST Day 2, (R,S)-ketamine vs. FENM","Fisher's PLSD after ANOVA, drug 5 minutes after stress, FIG. 3K",0.0014
same,"p, Immobility Time (s), FST Day 2, Saline vs. drug","Fisher's PLSD after ANOVA, drug 5 minutes after stress, FENM 20 mg/kg, (R,S)-ketamine 30 mg/kg, FIG. 3K",0.0097
same,"p, Immobility Time (s), FST Day 2, (R,S)-ketamine vs. FENM","Fisher's PLSD after RMANOVA, drug 5 minutes after stress, FIG. 3J",0.0069
same,"p, Immobility Time (s), FST Day 2, Saline vs. drug","Fisher's PLSD after RMANOVA, drug 5 minutes after stress, FENM 20 mg/kg, (R,S)-ketamine 30 mg/kg, FIG. 3J",0.0234
same,Behavior: Depressive-like,"Prophylactic (7 days before stress), dose 10 mg/kg",↓
same,Behavior: Depressive-like,"Prophylactic (7 days before stress), dose 20 mg/kg",↓
same,Behavior: Depressive-like,"Prophylactic (7 days before stress), dose 30 mg/kg",↓
same,"Forced Swim Test Day 1, Immobility Time Min 1 (sec), p (Fisher's LSD)",Saline vs. FENM (20 mg/kg),<0.0001
same,"Forced Swim Test Day 1, Immobility Time Min 2 (sec), p (Fisher's LSD)",Saline vs. FENM (20 mg/kg),0.0752
same,"Forced Swim Test Day 1, Immobility Time Min 3 (sec), p (Fisher's LSD)",Saline vs. FENM (20 mg/kg),0.0422
same,"Forced Swim Test Day 1, Immobility Time Min 4 (sec), p (Fisher's LSD)",Saline vs. FENM (20 mg/kg),0.4348
same,"Forced Swim Test Day 1, Immobility Time Min 5 (sec), p (Fisher's LSD)",Saline vs. FENM (20 mg/kg),0.8223
same,"Forced Swim Test Day 1, Immobility Time Min 6 (sec), p (Fisher's LSD)",Saline vs. FENM (20 mg/kg),0.0677
same,"Forced Swim Test Day 2, Immobility Time (sec), p (Fisher's LSD)","Saline vs. FENM (20 mg/kg), after ANOVA, FIG. 8K",0.3636
same,"Forced Swim Test Day 2, Immobility Time (sec), p (Fisher's LSD)","Saline vs. FENM (20 mg/kg), after RMANOVA, FIG. 8J",0.3085
same,"p, Fisher's PLSD Saline vs. drug, FST Day 2 Immobility Time Min 1 (s)",[4],0.0237
same,"p, Fisher's PLSD Saline vs. drug, FST Day 2 Immobility Time Min 2 (s)",[4],0.0034
same,"p, Fisher's PLSD Saline vs. drug, FST Day 2 Immobility Time Min 3 (s)",[4],0.0763
same,"p, Fisher's PLSD Saline vs. drug, FST Day 2 Immobility Time Min 4 (s)",[4],0.1586
same,"p, Fisher's PLSD Saline vs. drug, FST Day 2 Immobility Time Min 5 (s)",[4],0.0575
same,"p, Fisher's PLSD Saline vs. drug, FST Day 2 Immobility Time Min 6 (s)",[4],0.2137
same,"p, Fisher's PLSD Saline vs. drug, FST Day 2 Immobility Time (s)","dose (20), drug 5 minutes after stress, after ANOVA",0.0024
same,"immobility, day 1 of the FST",[5],comparable
same,"immobility, day 2 of the FST",[5],comparable
same,"p, Immobility Time (sec), FST Day 1, Saline vs. FENM","t-test, Baseline cohort, FENM 20 mg/kg, FIG. 6C",0.7086
same,"p, Immobility Time (sec), FST Day 2, Saline vs. FENM","t-test, Baseline cohort, FENM 20 mg/kg, FIG. 6E",0.7847
